Assay results taken from article PMC5642494 (Oncotarget, 2017).
Like-named read-outs stand apart in the source and are kept apart here.

Tests used:
[1] = tested on: MCF7 cells; experiment: Multiplexed cell number, β-gal and TUNEL in MCF7; format: cell-based, human; settings: 0.125 µM or 0.5 µM, 1-5 DT
Procedure: The viable cell number was determined by PI staining, the % of β-gal positive cells was determined using an antibody to β-gal, and the % of Tunel positive cells was determined by the incorporation of labelled dUTP. The data are plotted as the mean (+/- SD) of 2 experiments for CDK4 and CDK6 inhibitor treatment, and the mean of 6 experiments (+/- SD) for untreated samples. The duration of treatment is plotted along the x-axis in doubling times (DT) for MCF7 cells.
After treatment, cells were fixed, washed with PBS, permeabilized and β-gal was detected using anti-β-galactosidase antibody; for multiplexed assays, TUNEL staining was carried out using Roche TUNEL reagents as indicated above. Nuclei were also stained with PI for total cell counting. Plates were read in an Acumen Explorer Ex3 (TTP Labtech) and raw data were analyzed with Cellista software. Outputs were expressed as percentages of each identified subpopulation 1) positive β-gal, and 2) total cell number. The percentages of β-gal positive cells, TUNEL positive cells, and cell numbers were plotted in Microsoft Excel.

[2] = tested on: EFM-19 cells; experiment: Ki-67 protein expression, EFM-19; format: cell-based; settings: Homo sapiens, 2 DT, read-out: EC50 Ki-67 levels
Procedure: (§1) Relative IC50/EC50 values were determined by curve fitting to a four parameter logistic equation: Y = bottom + ((top-bottom)/ (1+exp(HillSlope*(X – LnIC50)), where X is the natural log of dose/concentration, Y is response, decreasing as X increases, top and bottom are plateaus in the same units as Y, lnIC50 is the natural log of potency, in the same log units as X, and HillSlope measures the steepness of the curve. Data were plotted using GraphPad Prism.
After 72 hours, cells were stained with an anti-FOXM1 antibody and a secondary goat anti-rabbit IgG, Alexa Fluor® 488 conjugate; nuclei were stained with propidium iodide (PI). Alternatively, for assessment of Ki-67 levels, cells were treated for 2 DT and then stained with Ki-67 and a secondary goat anti-rabbit IgG, Alexa Fluor® 488 conjugate. Plates were read in an Acumen Explorer Ex3 (TTP Labtech) using Cellista software and the percentages of FOXM1 positive and Ki-67 positive cells were calculated over the background signal. Data were normalized in Excel using the mean value obtained from treatment with 2 µM BEZ235 as the minimum and the mean value obtained from treatment with 0.2% DMSO as the maximum.

[3] = target: CDK4/cyclin D1 complexes; set-up: method as in PMID 24919854; settings: cell-free; read-out: Ki^ATP CDK4/cyclin D1; cited from earlier work
[4] = tested on: EFM-19 cells; experiment: PI high content imaging of G1 arrest and cell proliferation, EFM-19; format: cell-based; settings: Homo sapiens, at least 2 DT
Procedure: as §1, with “Prism. […]” for “Prism.”
Preclinical characterization of abemaciclib in hormone receptor […]
METHODS High content imaging cell-based assays for monitoring phosphorylation of Rb (ser780), G1 arrest and […]
ATP at 20°C by a secondary goat anti-mouse IgG-Alexa Fluor 488 in a 96-well plate filtration assay format. […] Plates were read in an kinase buffer containing 68 mM Hepes at pH 7.5, 6.67 mM Acumen Explorer eX3 (TTP Labtech). […] 10µL of CDK6/cyclin corresponding to 500-530 nm and the percentage of D3 enzyme complex (Millipore 14-519, #D13BP009NA) cells with pRb signal relative to the total PI stained (1 nM final concentration in the assay) was added onto subpopulation was calculated by the instrument’s software a mix of substrate and test compound. […]
(EDTA) was used to determine the level of background evaluated by measuring PI signal using high content 33P in the absence of enzyme activity. […]

EC50 [2]: 16.7 nM
Compound: CCN1CCN(Cc2ccc(Nc3ncc(F)c(-c4cc(F)c5nc(C)n(C(C)C)c5c4)n3)nc2)CC1 [abemaciclib, Abemaciclib]
TUNEL staining [1]: increase in TUNEL staining was observed by 2DT | Ki [3]: 0.6 nM | IC50 ([4]; n = 2, read-out: IC50 2n (G1 arrest)): 32 ± 21 nM | IC50 ([4]; n = 2, read-out: IC50 Cell number): 19 ± 4 nM
